Experimental data as given in US4713238A (GAF Corporation, priority 1986, dated 1987).
In brackets after ≈: the same amount, converted by molar mass.

How the values were obtained:
physchem = settings: water
Experimental: The pH was adjusted with a buffer solution to 6 and distilled water was added to bring the solution to 1% concentration. The resulting mixture was agitated on a horizontal shaker at room temperature for 24 hours.
The pH was then adjusted to 6.5 with a concentrated aqueous hydrochloric acid solution to convert the complexed salt to the complexed product of the process and agitation was continued for 2 hours.

[1] = cited from earlier work

Q: What does the source list for `NS(=O)(=O)c1cc2c(cc1Cl)N=CNS2(=O)=O` [chlorothiazide, 6-chloro-7-sulfamyl-1,2,4-benzothiadiazine-1,1-dioxide]?
A: solubility thermodynamic at 24 h (physchem; pH 6, water): 500 µg/mL (≈ 1690 µM); solubility (physchem; water solubility of uncomplexed chlorothiazide): ~500 µg/mL (≈ 1690 µM); solubility in alkaline aqueous solutions ([1]; alkaline aqueous solutions / alkali hydroxides): soluble in alkaline aqueous solutions; water-solubility ([1]; pH 6): 0.5 g. per liter
